Measurements: patent publication US20260325485A1, “COMPOSITIONS AND METHODS FOR TREATING PANCREATITIS” (The United States Government as represented by the …, priority 2022, published 2026)

Tests used:
[1] = system: cerulein pancreatitis (CER-AP); assay: Drug treatment of cerulein pancreatitis (CER-AP) in WT mice; type: in vivo, mouse
Description: FIGS. 10A-10N show deranged cholesterol metabolism causes acinar cell damage, while its normalization ameliorates experimental pancreatitis. (A-D) Cholesterol content and trypsin activity were measured (per mg protein) in WT mouse acinar cells incubated for 1 hour without and with methyl-β-cyclodextrin (MCD; 10 mM) or cholesterol-loaded MCD (MCD-Chol; 200 μg/mL), in the presence or absence of 100 nM CCK. Values are expressed relative to those in cells without MCD/MCD-Chol. (E-J) WT mice received daily i.p. injections of the LXR agonist T0901317 (T09), simvastatin (Sim; 20 mg/kg each), or vehicle. On day 4, mice were subjected to CER-AP and pancreata collected for analyses (see also FIG. 20). Cholesterol content (E), trypsin activity (F), and pancreas histopathology (H&E staining; G) were measured. (H, I, L, and N) IB analysis of markers/mediators of autophagy (LC3, p62), ER stress (CHOP, GRP-78), and mitophagy (Parkin). Ub, ubiquitylated proteins. (J) Mitochondrial fragmentation was assessed by immunostaining for Tom20, as detailed in FIG. 7G. (K and L) Mouse acinar cells were treated for 16 hours with LDL (30 μg/mL) or the combination of LDL and 10 μM U18666A. (M and N) Mice received injections of U18666A as detailed in FIG. 9B. Pancreas histopathology (H&E staining; M) and levels of autophagy markers/mediators (N) were measured. Each symbol in A-F and I represents an individual mouse or cell preparation. Values are mean±SEM from 3 to 7 mice or cell preparations per condition. ^§ P<0.05, ^§§ P<0.01 vs. control cells (without MCD/MCD-Chol). ***P<0.001 vs. saline-treated mice. ^#P<0.05, ^##P<0.01, ^###P<0.001 vs. CER-AP alone (no inhibitors). Significance was determined by 2-tailed Student's t test (A-D) or 1-way ANOVA followed by Tukey's multiple comparison test (E, F, and I). Scale bars: 10 μm.
FIGS. 20A-20C show simvastatin improves cerulein pancreatitis. Mice received daily i.p. injections of simvastatin (Sim; 20 mg/kg) or vehicle (see FIG. 10), and on day 4 were subjected to cerulein pancreatitis (CER-AP). (A) Pancreas histopathology (H&E staining; scale: 10 μm). (B) IB analysis of markers/mediators of autophagy (LC3, p62), ER stress (CHOP), and the MLN64/STARD3 protein mediating cholesterol transfer from LE/Ly to mitochondria. Each IB lane represents an individual mouse; ERK1/2 is the loading control. […] Ub, ubiquitylated proteins. (C) Pancreatitis responses. Values are mean±SEM from 7-13 mice for each condition. ***p<0.001 vs saline control. ^###p<0.001 vs CER-AP alone (no simvastatin). Significance was determined by 1-way ANOVA followed by Tukey's multiple comparisons test.
FIGS. 25A-25C show reducing cholesterol overload greatly ameliorates experimental pancreatitis. CER-AP responses were measured in (A) AclyAac or (C) WT mice treated with simvastatin or bempedoic acid (BemA). (B) Acinar cells were transfected with ACLA (or mock) siRNA and subjected to ex-vivo CCK-AP. Each symbol represents an individual mouse or cell preparation. Values are mean±SE. **p<0.01, ***p<0.001 vs saline treated control mice (or mock transfection); #p<0.05, ##p<0.01, ###p<0.001 vs CER/CCK-AP in control mice (i.e. without inhibitors) or cells.
Cerulein-induced (CER-AP) and L-arginine induced (Arg-AP) acute pancreatitis models were performed in 12-week-old C57BL/6 mice that received 7 hourly i.p. injections of 50 μg/kg cerulein or 3 hourly i.p. injections of 3.3 g/kg Arg; controls received physiologic saline injections. Mice were euthanized for analyses 7 hours after the first cerulein or 24 hours after the first Arg injection. Choline deficient, ethionine-supplemented (CDE) pancreatitis was induced in young (~5-weeks old) female mice fed either CDE or control diet. Mice were euthanized 72 hours after the diet initiation. These models have been described in detail (1-7).
12-week-old WT mice were subjected for 4 consecutive days to daily i.p. injections of 20 mg/kg simvastatin (8,9) or 20 mg/kg T0901317 (10); or 10 mg/kg U18666A for 15 days (11). […]

[2] = system: pancreas; assay: Drug treatment of Gnptab−/− mice: pancreatic total cholesterol; type: in vivo, mouse
Description: 12-week-old Gnptab−/− mice were subjected to daily i.p. injections of 20 mg/kg simvastatin or the same dose of T0901317 for 4 or 21 days.
Total cholesterol content was measured with Cholesterol Assay kit per manufacturer's instructions. Samples of mouse pancreas and liver, cell pellet homogenates, subcellular fractions, isolated mitochondria, and serum were diluted in the reaction buffer containing cholesterol probe and incubated at 37° C. for 1 h in the dark. To measure total cholesterol, the samples were subjected to digestion with cholesterol esterase. To measure non-esterified cholesterol, the esterase was omitted from the assay.

[3] = system: acinar cells; assay: Oxygen consumption rate (OCR) of acinar cells, Seahorse; type: cell-based, mouse; conditions: etomoxir 40 μM
Description: FIGS. 7A-7Q show Gnptab ablation causes mitochondrial dysfunction in the pancreas. Mitochondrial functional parameters were measured in mitochondria isolated from pancreas (A, D, J, and M) or liver (N-P), in acinar cells (B, C, and I), and pancreatic (E-H, K, and L) and liver (Q) tissues of WT and KO mice. (A and N) Activities of mitochondrial ETC complexes I, II, IV, and V. (B, C, and I) Acinar cell oxygen consumption rates (OCR), reflecting mitochondrial OXPHOS, were measured in basal conditions and after treatment with the B-oxidation inhibitor etomoxir (40 μM), and normalized to total protein in the sample. (B) Representative OCR tracings in acinar cell suspension subjected to consecutive injections of the ATP synthase inhibitor oligomycin (Oligo; 3 μM), protonophore FCCP (2.7 μM), and […] rotenone plus antimycin A (R+A, 5 μM each; to correct for nonmitochondrial respiration). (C and I) ATP-linked respiration was calculated as the difference between basal OCR and that in Oligo-treated cells; the maximal OCR was obtained in FCCP-treated cells. (D and O) Mitochondrial membrane potential (ΔΨm) was measured with a tetraphenyl phosphonium ion (TPP+) electrode. FCCP (5 μM) was added to completely dissipate ΔΨm. (E) ATP was measured in pancreatic tissue homogenate with luciferin-luciferase assay. […] (G) Mitochondrial fragmentation was assessed by changes in Tom20 or VDAC immunostaining pattern, from an interconnected tubular mitochondrial network in WT to a predominantly disjoined/circular one in KO pancreas. […] (K) Long-chain acylcarnitines were measured with LC-MS/GC-MS. […] Significance was determined by 2-tailed Student's t test.
Oxygen consumption rates (OCR) were measured in live acinar cells using Seahorse XFe96, as in (15). […] In all within-set experiments the same volume of cell suspension were used with the same amount of protein; and partial oxygen pressure was monitored to ensure its stability in the cell suspension.

[4] = system: trypsin; assay: Trypsin activity in Gnptab−/− acinar cells; type: cell-based, mouse; conditions: 3 hours; 50 μM CA-074Me or 20 nM BafA1
Description: FIGS. 6A-6R show mechanisms mediating increased trypsin activity in Gnptab−/− pancreas. Trypsin activity and its regulation were analyzed in pancreatic (A, C, and D) tissue, (B and P-R) acinar cells, (E-H and O) lobules, and (I-N) subcellular fractions. In B, acinar cells were incubated for 3 hours without and with 20 nM BafAl or 50 μM CatB inhibitor CA-074Me; in P-R, with the cholesterol chelator methyl-β-cyclodextrin (MCD) at the indicated concentrations. In E-H, pancreatic lobules were double stained for TAP and LC3 or LAMP2; in O, for TAP and filipin. Quantitative colocalization analysis was done as detailed in FIG. 2. Each symbol in A, B, J-N, Q, and R represents an individual mouse or cell preparation (n=3-8 per condition). Each symbol in D, G, and H corresponds to 20 to 30 cells in a different field (n=9-20 fields from 3 WT and 3 KO mice or lobule preparations). Values are mean±SEM. **P<0.01, ***P<0.001 vs. WT tissue/lobules (A, G, and H) or corresponding WT subcellular fraction (K and M). ##P<0.01 vs. no inhibitors (B) or MCD (Q and R). ††P<0.01, †††P<0.001 vs. the other two fractions (L and N). Significance was determined by 2-tailed Student's t test (A, G, and H) or 1-way ANOVA followed by Tukey's multiple comparison test (B, K-N, Q, and R). Scale bars: 10 μm.
Activities of cathepsin (Cat) B and L, caspase-3, trypsin, and lysosomal acid lipase (LAL) were measured in pancreatic tissue or cell homogenates and subcellular fractions with fluorogenic assays using substrates specific for CatB (Z-Arg-Arg-AMC), CatL (Z-Phe-Arg-AMC), caspase-3-like ([…]), trypsin (Boc-Gln-Ala-Arg-AMC), as previously described (1-4, 6, 7); and for LAL (4-methylumbelliferyl oleate), as in (17). In measurements of CatL activity, the assay buffer also contained 50 μM CA-074me, a CatB inhibitor. LAL activity was measured in the absence and presence of the LAL inhibitor lalistat (100 μM) as the difference between these values (17).

[5] = CER-AP, T0901317 or simvastatin 20 mg/kg i.p. daily

## O=S(=O)(c1ccccc1)N(CC(F)(F)F)c1ccc(C(O)(C(F)(F)F)C(F)(F)F)cc1 [T0901317]
[1]; CER-AP, 20 mg/kg i.p. daily
  CER-induced increase in MLN64: abrogated
  accumulation of LC3-II: reduced
  accumulation of p62: reduced
  accumulation of ubiquitylated proteins: reduced
  mitochondrial fragmentation (Tom20 IF): normalized
[1]; CER-AP, 20 mg/kg i.p. daily, ER stress
  CHOP levels: decreased
[1]; [5]
  pancreatitis-induced increase in total cholesterol: eliminated
  pancreatitis-induced increase in trypsin activity: eliminated
[1]; H&E, 20 mg/kg i.p. daily
  pancreas histopathology in CER-AP: improved
[1]; discussion statement
  pathologic responses of experimental pancreatitis (impaired autophagy, ER stress and others): reduced
[1]; overall result
  experimental pancreatitis in WT mouse and ex vivo models: ameliorated
[2]; 20 mg/kg i.p. daily for 4 or 21 days
  total cholesterol content in pancreas, Gnptab−/− mice: Neither treatment changed
[2]; even for 3 weeks
  pancreatic total cholesterol, Gnptab−/− mice: failed to decrease

## CCOC(=O)[C@@]1(CCCCCCOc2ccc(Cl)cc2)CO1 [etomoxir]
[3]; Gnptab−/− (KO) acinar cells
  respiration rates, KO: not significantly reduced
[3]; WT acinar cells
  ATP-linked OCR, WT: inhibition
  basal OCR, WT: inhibition

## CCCNC(=O)[C@H]1O[C@@H]1C(=O)N[C@H](C(=O)N1CCC[C@H]1C(=O)OC)[C@@H](C)CC [CA-074Me]
[4]
  Reduction of trypsin activity, Gnptab−/− acinar cells: by half
